# Data taken from patent EP4729522A1, “CRYSTAL FORMS OF SODIUM SALT OF POLYCYCLIC CARBAMOYLPYRIDONE DERIVATIVE, AND PREPARATION METHOD THEREFOR AND USE THEREOF” (Jiangsu Aidea Pharmaceutical Group Co., Ltd., priority 2023, dated 2024).
# Entries after “also recorded” stand apart in the source; their conditions may differ. Counter-ions that a name gives are not always drawn.
# Assays:
# Format in all cases: physicochemical
# [1] = Influencing factors stability test (high temperature, high humidity, lighting; XRPD, HPLC, appearance); settings: for Purity: HPLC
# Experimental: The petri dishes were then transferred into constant temperature and humidity chambers under three different conditions: high temperature (60 °C, sealed), high relative humidity (RH: 90 ± 5%, 25 °C, open), and lighting (5000 ± 500 Lux, open). The samples were tested on Day 5 and Day 10.
# [2] = Hygroscopicity by Dynamic Vapor Sorption (DVS)
# Experimental: [table] […] The sample, after DVS testing, was then analyzed by XRPD. Table 8 DVS test results of sodium salts
# [3] = High pressure property test (XRPD after pressing); settings: pressed at 10 MPa for 5 minutes, 13 mm die
# [4] = Simulated granulation test (ethanol wetting and grinding, XRPD); settings: wetted with ethanol, then ground
# Experimental: The resulting solid and the sample without the addition of wetting ethanol were analyzed by XRPD, respectively.
# [5] = Day 5, High humidity (RH 90 ± 5%, 25 °C, open)
# [6] = Day 5, High temperature (60 °C, sealed)
# [7] = Day 5, Lighting (5000 ± 500 Lux, open)
# [8] = Day 10, High humidity (RH 90 ± 5%, 25 °C, open)
# [9] = Day 10, High temperature (60 °C, sealed)
# [10] = Day 10, Lighting (5000 ± 500 Lux, open)
smiles,measurement,setting,value
C[C@H]1N2C(=O)c3c(O)c(=O)c(C(=O)NCc4ccc(F)cc4F)cn3C[C@@H]2OCC12CC2 [Sodium salt crystal form A],Property,[1]; Day 0,off-white solid
same,XRPD,[1]; Day 0,Crystal Form A
same,Purity,[1]; Day 0,99.57%
same,Property,[1]; [5],off-white solid
same,XRPD,[1]; [5],Crystal Form A
same,Purity,[1]; [5],99.64%
same,Property,[1]; [6],off-white solid
same,XRPD,[1]; [6],Crystal Form A
same,Purity,[1]; [6],99.69%
same,Property,[1]; [7],off-white solid
same,XRPD,[1]; [7],Crystal Form A
same,Purity,[1]; [7],99.68%
same,Property,[1]; [8],off-white solid
same,XRPD,[1]; [8],Crystal Form A
same,Purity,[1]; [8],99.72%
same,Property,[1]; [9],off-white solid
same,XRPD,[1]; [9],Crystal Form A
same,Purity,[1]; [9],99.72%
same,Property,[1]; [10],off-white solid
same,XRPD,[1]; [10],Crystal Form A
same,Purity,[1]; [10],99.72%
same,weight gain at 80% relative humidity (RH),"[2]; DVS, 80% RH, 25°C",0.69%
same,Adsorption,"[2]; Relative humidity 0%, adsorption (cycle 1 of 2), 25°C",0.0000%
same,Adsorption,"[2]; Relative humidity 0%, adsorption (cycle 2 of 2), 25°C",-0.0471%
same,Desorption,"[2]; Relative humidity 0%, desorption (cycle 2 of 2), 25°C",-0.0614%
same,Desorption,"[2]; Relative humidity 0%, first desorption (cycle 1 of 2), 25°C",-0.0471%
same,Adsorption,"[2]; Relative humidity 10%, adsorption (cycle 1 of 2), 25°C",0.0668%
same,Adsorption,"[2]; Relative humidity 10%, adsorption (cycle 2 of 2), 25°C",0.0230%
same,Desorption,"[2]; Relative humidity 10%, desorption (cycle 2 of 2), 25°C",0.0147%
same,Desorption,"[2]; Relative humidity 10%, first desorption (cycle 1 of 2), 25°C",0.0285%
same,Adsorption,"[2]; Relative humidity 20%, adsorption (cycle 1 of 2), 25°C",0.1197%
same,Adsorption,"[2]; Relative humidity 20%, adsorption (cycle 2 of 2), 25°C",0.0818%
same,Desorption,"[2]; Relative humidity 20%, desorption (cycle 2 of 2), 25°C",0.0758%
same,Desorption,"[2]; Relative humidity 20%, first desorption (cycle 1 of 2), 25°C",0.0891%
same,Adsorption,"[2]; Relative humidity 30%, adsorption (cycle 1 of 2), 25°C",0.1725%
same,Adsorption,"[2]; Relative humidity 30%, adsorption (cycle 2 of 2), 25°C",0.1394%
same,Desorption,"[2]; Relative humidity 30%, desorption (cycle 2 of 2), 25°C",0.1373%
same,Desorption,"[2]; Relative humidity 30%, first desorption (cycle 1 of 2), 25°C",0.1498%
same,Adsorption,"[2]; Relative humidity 40%, adsorption (cycle 1 of 2), 25°C",0.2282%
same,Adsorption,"[2]; Relative humidity 40%, adsorption (cycle 2 of 2), 25°C",0.2001%
same,Desorption,"[2]; Relative humidity 40%, desorption (cycle 2 of 2), 25°C",0.2149%
same,Desorption,"[2]; Relative humidity 40%, first desorption (cycle 1 of 2), 25°C",0.2239%
same,Adsorption,"[2]; Relative humidity 50%, adsorption (cycle 1 of 2), 25°C",0.2857%
same,Adsorption,"[2]; Relative humidity 50%, adsorption (cycle 2 of 2), 25°C",0.2641%
same,Desorption,"[2]; Relative humidity 50%, desorption (cycle 2 of 2), 25°C",0.3200%
same,Desorption,"[2]; Relative humidity 50%, first desorption (cycle 1 of 2), 25°C",0.3320%
same,Adsorption,"[2]; Relative humidity 60%, adsorption (cycle 1 of 2), 25°C",0.3539%
same,Adsorption,"[2]; Relative humidity 60%, adsorption (cycle 2 of 2), 25°C",0.3365%
same,Desorption,"[2]; Relative humidity 60%, desorption (cycle 2 of 2), 25°C",0.5185%
same,Desorption,"[2]; Relative humidity 60%, first desorption (cycle 1 of 2), 25°C",0.5250%
same,Adsorption,"[2]; Relative humidity 70%, adsorption (cycle 1 of 2), 25°C",0.5505%
same,Adsorption,"[2]; Relative humidity 70%, adsorption (cycle 2 of 2), 25°C",0.5627%
same,Desorption,"[2]; Relative humidity 70%, desorption (cycle 2 of 2), 25°C",0.6037%
same,Desorption,"[2]; Relative humidity 70%, first desorption (cycle 1 of 2), 25°C",0.6126%
same,Adsorption,"[2]; Relative humidity 80%, adsorption (cycle 1 of 2), 25°C",0.6895%
same,Adsorption,"[2]; Relative humidity 80%, adsorption (cycle 2 of 2), 25°C",0.6928%
same,Desorption,"[2]; Relative humidity 80%, desorption (cycle 2 of 2), 25°C",0.7082%
same,Desorption,"[2]; Relative humidity 80%, first desorption (cycle 1 of 2), 25°C",0.7176%
same,Adsorption,"[2]; Relative humidity 90%, adsorption (cycle 1 of 2), 25°C",0.9012%
same,Adsorption,"[2]; Relative humidity 90%, adsorption (cycle 2 of 2), 25°C",0.8889%
same,Desorption,"[2]; Relative humidity 90%, desorption (cycle 2 of 2), 25°C",0.8889%
same,Desorption,"[2]; Relative humidity 90%, first desorption (cycle 1 of 2), 25°C",0.9012%
same,After DVS testing Crystal form change,[2]; XRPD after DVS testing,"did not change; also recorded: Crystal form A, unchanged"
same,crystal form after the high-pressure test (XRPD),[3],did not change
same,change in crystal form after ethanol wetting and grinding (XRPD),[4],did not exhibit a change in crystal form
